Reference: patent publication EP0053029A1, “Non enkephalin-like peptides, their production, compositions containing them, and their medical and veterinary use” (PENINSULA LABORATORIES INCORPORATED, priority 1980, dated 1982)
Values joined by “and” are separate entries in the source; they are usually repeats but may differ in a detail not shown here. Equal values may be shown once. Where a SMILES comes first, the peptide text is derived from it. [ ]: non-standard residue; d: D form. NMeF = CN[C@@H](Cc1ccccc1)C(=O)O; Thz = O=C(O)[C@@H]1CSCN1

Test system: rat
Experiment: rat tail withdrawal assay (hot water, 55°C)
Type: in vivo
Conditions: for analgesic activity: general statement, route and dose not stated
Procedure: The acetate salts of formula I described in Examples 1 to 3 were tested for analgesic activity in the rat tail withdrawal assay. […] Latencies of 5 seconds or greater indicate strong analgesic activity and 20 seconds is a maximum response in this test. The peptides were administered intracisternally or intravenously.
The formula I acetate of Example 2 was dissolved in a sufficient sterile, distilled water to give an injection volume of 1 ml/kg of body weight and administered to rats as a bolus i.v. injection at several dosages.

`NC(=O)[C@@H]1CSCN1C(=O)[C@H](Cc1ccccc1)NC(=O)[C@@H]1CCCN1C(=O)[C@@H](N)Cc1ccc(O)cc1` [Example 1, L-Tyrosyl-L-Prolyl-L-Phenylalanyl-L-Thiazolidine-4-carboxyl·amide Acetate] (H-YPF[Thz]-NH2) was tested, and the analgesic activity was “high analgesic activity”.

In the case of `CN(C(=O)[C@@H]1CCCN1C(=O)[C@@H](N)Cc1ccc(O)cc1)[C@@H](Cc1ccccc1)C(=O)N1CCC[C@@H]1C(N)=O` [Example 2, L-Tyrosyl-L-Prolyl-N-Methyl-L-Phenylalanyl-D-Prolinamide-Acetate] (H-YP[NMeF][dP]-NH2), the “Latency of Tail Withdrawal” value (i.v. bolus, 2.5 mg/kg, 5 min. after injection) is reported as 2 s, the “Latency of Tail Withdrawal” value (i.v. bolus, 5.0 mg/kg, 5 min. after injection) is reported as 8.4 ± 3.6 s and the “Latency of Tail Withdrawal” value (i.v. bolus, 10.0 mg/kg, 5 min. after injection) is reported as 10.2 ± 3.2 s. The “Latency of Tail Withdrawal” value (i.v. bolus, 10.0 mg/kg, 15 min. after injection) was 11.1 ± 3.1 s, the “Latency of Tail Withdrawal” value (i.v. bolus, 10.0 mg/kg, 30 min. after injection) was 7.5 ± 2.5 s and the “Latency of Tail Withdrawal” value (i.v. bolus, 10.0 mg/kg, 60 min. after injection) was 6.4 ± 2.3 s. For the same compound, the “Latency of Tail Withdrawal” value (i.v., 2.5 mg/kg, 15 min. after injection) was 3.5 s, the “Latency of Tail Withdrawal” value (i.v., 2.5 mg/kg, 30 min. after injection) was 3.0 s and the “Latency of Tail Withdrawal” value (i.v., 2.5 mg/kg, 60 min. after injection) was 2.5 s. The “Latency of Tail Withdrawal” value (i.v., 5.0 mg/kg, 15 min. after injection) was 10.3 ± 3.1 s, the “Latency of Tail Withdrawal” value (i.v., 5.0 mg/kg, 30 min. after injection) was 9.1 ± 3.4 s and the “Latency of Tail Withdrawal” value (i.v., 5.0 mg/kg, 60 min. after injection) was 7.8 ± 3.0 s. For the same compound, the Comments (i.v., 5.0 mg/kg, observed behaviour) was “Individual rats showed 20 sec. latencies and morphine-like symptoms”.

For `CN(C(=O)[C@@H]1CCCN1C(=O)[C@@H](N)Cc1ccc(O)cc1)[C@@H](Cc1ccccc1)C(=O)N1CCC[C@@H]1CO` [Example 3, L-Tyrosyl-L-Prolyl-N-Methyl-L-Phenylalanyl-D-Prolinol· Acetate], the analgesic activity was “high analgesic activity”.

`CN(C(=O)[C@@H]1CSCN1C(=O)[C@@H](N)Cc1ccc(O)cc1)[C@@H](Cc1ccccc1)C(=O)N1CCC[C@@H]1C(N)=O` [Tyr-Thz-N-Me-Phe-D-Pro-NFi2] (H-Y[Thz][NMeF][dP]-NH2) was tested, and the analgesic activity was “high analgesic activity”.

`CN1CC[C@]23c4c5ccc(O)c4O[C@H]2[C@@H](O)C=C[C@H]3[C@H]1C5` [morphine, reference compound] was tested, and the “Latency of Tail Withdrawal” value (rat, in vivo, iv, 2.5 mg/kg) was 5 s and 6 s and 4.1 s, the Comments (rat, in vivo, iv, 5 mg/kg) was “Catalepsy Rigidity” and the “Latency of Tail Withdrawal” value (rat, in vivo, iv, 5 mg/kg) was 20 s. For the same compound, the “Latency of Tail Withdrawal” value (rat, in vivo, iv, 7.5 mg/kg) was 20 s.
